Earlier results as cited in patent US20200179539A1, “Contrast Agents and Methods of Making the Same for Spectral CT That Exhibit Cloaking and Auto-Segmentation” (BOARD OF REGENTS, THE UNIVERSITY OF TEXAS SYSTEM, priority 2017, published 2020).

Test system: rat
Conditions: rat oral

In the case of `[Na+].[Na+].[O]=[W](=[O])([O-])[O-]` [sodium tungstate], the LD50 is listed as 1,190 mg/Kg.
